What was measured:
Format in all cases: cell-based
[1] = test system: Primary human osteoblasts; experiment: qPCR gene expression in osteoblast cultures exposed to PCA
Experimental: (§1) Cells: Primary human osteoblasts were obtained from Cell Applications, San Diego, Calif.
(§2) Cell culture: Osteoblasts were expanded in culture using the protocol provided by Cell Applications. Human Osteoblast Basal Media was supplemented with Human Osteoblast Growth Supplement (Cell Applications) containing 0.15 g/L calcium. Human Osteoblast Differentiation Media was purchased from Cell Applications, containing 0.20 g/L calcium.
(§3) Treatment: Osteoblasts were cultured in Human Osteoblast Basal Media and exposed to Protocatechuic acid (PCA) for up to 12 days at concentrations ranging from 1 μmolar to 100 μM. Osteoblasts were cultured without any PCA as negative control. Osteoblasts were cultured without any PCA in osteogenic media (Human Osteoblast Differentiation Media) as positive control (osteogenic media induces osteogenesis in osteoblasts). Each experiment was conducted in triplicate. Media were changed every 3 days.
Gene expression: Pro-osteogenic and anti-osteogenic gene expression was measured using qPCR on mRNA extracted from osteoblast cultures. Gene expression was computed as fold-change relative to control group (osteoblasts cultured without any PCA).

[2] = test system: Primary human osteoblasts; experiment: Calcium deposition in osteoblast cultures, Alizarin red stain; settings: PCA 1 μM to 100 μM, 12 days of culture
Experimental: as §1, §2, §3
Calcium deposition: Osteoblast cultures were tested for calcium deposition using Alizarin red stain.

[3] = test system: Primary human mesenchymal stem cells (MSC); experiment: Calcium deposition in MSC cultures, Alizarin red stain at 21 days; settings: three cell lines, PCA 200 μM to 2000 μM, FIG. 8
Experimental: (§4) Cells: Primary human mesenchymal stem cells (MSC) were obtained from RoosterBio Inc., Frederick, Md.; ATCC, Manassas, Va.; and Cell Applications, San Diego, Calif.
(§5) Cell culture: MSC were expanded in culture, using the protocol provided by the respective suppliers, before being subjected to the experimental conditions.
(§6) Treatment: MSC were cultured in supplier-provided culture media and exposed to Protocatechuic acid (PCA) for 14 or 21 days at concentrations ranging from 200 μM to 2000 μM (2 mM). MSC were cultured without any PCA as negative control. To serve as positive control, MSC were cultured without any PCA in osteogenic media (Human Osteoblast Differentiation Media, Cell Applications, Catalog number: 417D-250). Osteogenic media is commonly used to induce osteogenesis. Each experiment was conducted in triplicate. Media was changed twice a week.
Calcium deposition: MSC cultures were tested for calcium deposition using Alizarin red stain at 21 days.

[4] = test system: Primary human mesenchymal stem cells (MSC); experiment: qPCR osteogenic gene expression in MSC cultures exposed to PCA; settings: three cell lines, PCA 200 μM to 2000 μM, 14 or 21 days
Experimental: as §4, §5, §6
Gene expression: Osteogenic gene expression was measured using qPCR on mRNA extracted from MSC cultures. Gene expression was computed as fold-change relative to the control group (MSC cultured without any PCA). MSC cultured in osteogenic media was used as positive control as this protocol is commonly used to induce osteogenesis.

O=C(O)c1ccc(O)c(O)c1 [PCA, protocatechuic acid]
IL-1β gene expression (anti-osteogenic gene) ([1]; PCA 1 μM to 100 μM, FIG. 2): increasing | IL-6 gene expression (anti-osteogenic gene) ([1]; PCA 1 μM to 100 μM, FIG. 2): increasing | MMP-1 gene expression (anti-osteogenic gene) ([1]; PCA 1 μM to 100 μM, FIG. 2): suppressing | TNF-α gene expression (anti-osteogenic gene) ([1]; PCA 1 μM to 100 μM, FIG. 2): suppressing | BMP-6 expression, dose dependence ([1]; PCA 1 μM to 100 μM, FIG. 3): dose-dependent effect | osteogenic gene expression (IBSP, SPP1, TNAP, RunX2) ([1]; PCA 1 μM to 100 μM, up to 12 days, fold-change relative to control without PCA, FIG. 1): dose-dependent effect on all osteogenic genes tested | expression of osteogenic genes versus positive control (osteogenic media) ([1]; PCA 100 μmolar (highest dose)): even higher than that measured in the positive control | BMP-6 expression relative to negative control ([1]; PCA 100 μmolar, FIG. 3): greater than 2 fold | calcium deposition [2]: did not increase deposition of calcium by detectable amounts | deposition of calcium [3]: visibly increased the deposition of calcium in one of the three cell lines | RUNX2 expression ([4]; FIG. 5): increased RUNX2 at most dose levels | RUNX2 expression versus positive control (osteogenic media) ([4]; FIG. 5): mostly higher than the positive control | expression of alkaline phosphatase (TNAP) ([4]; FIG. 6): increased the expression of alkaline phosphatase relative to negative control but not greater than the osteogenic conditions | expression of bone sialoprotein (IBSP) ([4]; FIG. 7): did not increase | expression of osteopontin (SPP1) ([4]; versus positive control (osteogenic media), FIG. 4): even higher than that measured in the positive control

— patent US20230277486A1, “COMPOSITIONS FOR THE TREATMENT OF NON-ARTICULAR CARTILAGE-[…] CONDITIONS” (priority 2019, published 2023)
